Test results published in US20260070899A1, “N-(2-(4-CYANOTHIAZOLIDIN-3-YL)-2-OXOETHYL)-QUINOLINE-4-CARBOXAMIDES” (AstraZeneca AB, priority 2022, published 2026).

Key:
Assay in all cases: biochemical
[1] = target: T1, hFAP (Homo sapiens, UniProt Q12884);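 note: substrate fluorescence read at room temperature in darkness, IC50 obtained by one-site dose-response fitting of percent inhibition against log concentration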
T1 sequence (Q12884 38-760): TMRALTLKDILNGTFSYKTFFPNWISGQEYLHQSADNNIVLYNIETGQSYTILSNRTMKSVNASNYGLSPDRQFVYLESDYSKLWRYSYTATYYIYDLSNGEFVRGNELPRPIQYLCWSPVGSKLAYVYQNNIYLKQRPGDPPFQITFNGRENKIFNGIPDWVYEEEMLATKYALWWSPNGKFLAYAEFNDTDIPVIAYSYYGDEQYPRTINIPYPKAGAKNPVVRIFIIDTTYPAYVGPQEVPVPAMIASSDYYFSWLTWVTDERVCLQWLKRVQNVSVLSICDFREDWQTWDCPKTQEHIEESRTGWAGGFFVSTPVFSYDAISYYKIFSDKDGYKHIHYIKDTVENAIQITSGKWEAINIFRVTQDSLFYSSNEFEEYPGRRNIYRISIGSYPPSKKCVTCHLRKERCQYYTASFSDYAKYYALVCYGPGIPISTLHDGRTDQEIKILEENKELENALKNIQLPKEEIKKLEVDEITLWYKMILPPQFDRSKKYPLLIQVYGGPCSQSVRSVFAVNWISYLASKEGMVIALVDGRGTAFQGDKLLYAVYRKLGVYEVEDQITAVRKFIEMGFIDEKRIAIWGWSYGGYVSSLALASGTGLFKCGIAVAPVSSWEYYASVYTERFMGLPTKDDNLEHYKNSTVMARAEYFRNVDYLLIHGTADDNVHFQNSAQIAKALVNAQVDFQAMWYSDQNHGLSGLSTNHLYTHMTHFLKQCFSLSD
Description: 384 low volume black plates (Greiner #784076) were used. 4 μL, 0.48 nM enzyme solution (100 mM Tris HCl, 100 mM NaCl, 0.05% Chaps, pH 7.4) was added to 40 nL compounds (in DMSO) at 10 CR, 3 fold dilution series from 50 μM FAC. Plates were incubated for 15 min at rt in dark. 4 μL, 40 μM substrate solution (100 mM Tris HCl, 100 mM NaCl, 0.05% Chaps, pH 7.4) was added to each well. Plates were centrifuged at 1000 rpm and incubated for 30 min at rt in dark. The plates were read on a PHERAstar® reader with excitation 340 nm and emission 460 nm. Data were analyzed in Genedata Screener®. IC50 values were determined by plotting % inhibition versus log compound concentration and using a one site dose response model.

[2] = target: T2, hFAP (M39-A757) (Homo sapiens, UniProt Q12884);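 note: surface plasmon resonance direct binding to hFAP amine-coupled on a sensor chip, rising compound concentrations by single cycle kinetics, Kd from global fit of interaction models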
T2 sequence (Q12884 39-757): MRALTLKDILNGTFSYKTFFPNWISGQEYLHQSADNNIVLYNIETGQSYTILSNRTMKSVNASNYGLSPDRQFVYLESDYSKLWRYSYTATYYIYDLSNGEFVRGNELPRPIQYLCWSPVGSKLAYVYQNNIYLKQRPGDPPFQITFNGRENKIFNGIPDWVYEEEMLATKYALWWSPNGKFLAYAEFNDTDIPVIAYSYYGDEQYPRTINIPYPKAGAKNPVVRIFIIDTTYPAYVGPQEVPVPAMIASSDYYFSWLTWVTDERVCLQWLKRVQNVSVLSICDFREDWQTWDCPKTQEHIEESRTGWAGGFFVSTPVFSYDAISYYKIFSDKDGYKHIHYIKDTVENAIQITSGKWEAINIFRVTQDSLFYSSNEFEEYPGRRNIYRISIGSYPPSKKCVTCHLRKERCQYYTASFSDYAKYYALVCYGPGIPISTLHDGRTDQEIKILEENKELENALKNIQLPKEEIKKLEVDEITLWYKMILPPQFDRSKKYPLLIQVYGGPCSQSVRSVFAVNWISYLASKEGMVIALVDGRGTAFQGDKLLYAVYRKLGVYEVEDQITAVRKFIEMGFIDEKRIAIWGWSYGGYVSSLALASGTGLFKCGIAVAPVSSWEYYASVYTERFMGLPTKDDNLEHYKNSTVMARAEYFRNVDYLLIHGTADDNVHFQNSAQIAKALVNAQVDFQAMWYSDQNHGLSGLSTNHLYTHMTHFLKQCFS

[3] = target: T3, Prolyl endopeptidase, Prolyl Oligopeptidase (hPREP) (Homo sapiens, UniProt P48147)
T3 sequence (P48147 1-710): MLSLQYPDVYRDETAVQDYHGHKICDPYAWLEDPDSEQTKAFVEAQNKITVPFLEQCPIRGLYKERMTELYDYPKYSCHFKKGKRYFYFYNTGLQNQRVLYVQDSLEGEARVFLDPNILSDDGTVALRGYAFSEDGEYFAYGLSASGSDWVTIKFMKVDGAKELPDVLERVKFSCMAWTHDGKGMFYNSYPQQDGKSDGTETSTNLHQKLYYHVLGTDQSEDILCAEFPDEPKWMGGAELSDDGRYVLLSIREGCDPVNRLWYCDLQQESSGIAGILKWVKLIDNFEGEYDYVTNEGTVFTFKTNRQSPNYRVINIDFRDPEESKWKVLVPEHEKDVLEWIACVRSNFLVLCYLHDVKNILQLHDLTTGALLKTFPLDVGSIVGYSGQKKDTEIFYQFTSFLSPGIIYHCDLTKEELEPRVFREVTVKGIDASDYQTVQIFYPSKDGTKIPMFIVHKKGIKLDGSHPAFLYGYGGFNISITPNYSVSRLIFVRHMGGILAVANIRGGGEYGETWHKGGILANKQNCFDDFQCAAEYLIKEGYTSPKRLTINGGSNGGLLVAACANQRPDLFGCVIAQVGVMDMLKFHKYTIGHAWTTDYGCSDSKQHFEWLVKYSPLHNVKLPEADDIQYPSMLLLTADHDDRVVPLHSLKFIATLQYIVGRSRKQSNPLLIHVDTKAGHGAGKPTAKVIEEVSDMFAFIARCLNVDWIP
Description: Compounds were tested in a biochemical inhibition assay using Prolyl endopeptidase, Prolyl Oligopeptidase (hPREP) enzyme at 0.6 nM FAC (R&D Systems, 4308-SE) and the substrate Z-Gly-Pro-amino-methylcoumarin (Bachem, I-1145) at 50 μM FAC. 384 Low volume black plates (Greiner #784076) were used. […] Plates were incubated for 15 min at rt in dark. 4 μL, 100 μM substrate solution (25 mM Tris HCl, 250 mM NaCl, 0.01% Triton X-100, 5 mM Glutathione, pH 7.5) was added to each well. Plates were centrifuged at 1000 rpm and incubated for 20 min at rt in dark. The plates were read on a PHERAstar® reader with excitation 340 nm and emission 460 nm. Data were analyzed in Genedata Screener®. IC50 values were determined by plotting % inhibition versus log compound concentration and using a one site dose response model.

| SMILES | IC50 [1] | Kd [2] | IC50 [3] |
| --- | --- | --- | --- |
| COC(C)c1ccc2nccc(C(=O)NCC(=O)N3CSC[C@H]3C#N)c2c1 (mixture of isomers) [Example 26, N-(2-((R)-4-Cyanothiazolidin-3-yl)-2-oxoethyl)-6-((RS)-1-methoxyethyl)quinoline-4-carboxamide] | 0.84 nM | 4.7 nM | 470 nM |
| CC1(C)CC(c2ccc3nccc(C(=O)NCC(=O)N4CSC[C@H]4C#N)c3c2)CCO1 (mixture of isomers) [Example 68, N-(2-((R)-4-Cyanothiazolidin-3-yl)-2-oxoethyl)-6-((RS)-2,2-dimethyltetrahydro-2H-pyran-4-yl)quinoline-4-carboxamide] | 0.3 nM | 0.075 nM | 330 nM |
| N#C[C@@H]1CSCN1C(=O)CNC(=O)c1ccnc2ccc([C@]34CCOC[C@H]3C4)cc12 (racemic) [Example 69, 6-((1RS,6SR)-3-Oxabicyclo[4.1.0]heptan-6-yl)-N-(2-((R)-4-cyanothiazolidin-3-yl)-2-oxoethyl)quinoline-4-carboxamide] | 0.2 nM | 0.026 nM | 350 nM |
| N#C[C@@H]1CSCN1C(=O)CNC(=O)c1ccnc2ccc(Oc3ccccc3)cc12 [Example 1, (R)—N-(2-(4-Cyanothiazolidin-3-yl)-2-oxoethyl)-6-phenoxyquinoline-4-carboxamide] | 0.44 nM | 0.33 nM | 35 nM |
| N#C[C@@H]1CSCN1C(=O)CNC(=O)c1ccnc2ccc(C3(F)CCOCC3)cc12 [Example 64, (R)—N-(2-(4-Cyanothiazolidin-3-yl)-2-oxoethyl)-6-(4-fluorotetrahydro-2H-pyran-4-yl)quinoline-4-carboxamide] | – | 0.042 nM | 300 nM |

More lines, in order of falling Kd [2], values ahead:

| IC50 [1] | Kd [2] | IC50 [3] | SMILES |
| --- | --- | --- | --- |
| 0.79 nM | 0.91 nM | 35 nM | N#C[C@@H]1CSCN1C(=O)CNC(=O)c1ccnc2ccc(C(F)(F)F)cc12 [Example 17, (R)—N-(2-(4-Cyanothiazolidin-3-yl)-2-oxoethyl)-6-(trifluoromethyl)-quinoline-4-carboxamide] |
| 0.66 nM | 0.8 nM | 440 nM | CC(O)c1ccc2nccc(C(=O)NCC(=O)N3CSC[C@H]3C#N)c2c1 (mixture of isomers) [Example 25, N-(2-((R)-4-Cyanothiazolidin-3-yl)-2-oxoethyl)-6-((RS)-1-hydroxyethyl)quinoline-4-carboxamide] |
| 1.7 nM | 0.63 nM | 1700 nM | COCC(OC)c1ccc2nccc(C(=O)NCC(=O)N3CSC[C@H]3C#N)c2c1 (mixture of isomers) [Example 30, N-(2-((R)-4-Cyanothiazolidin-3-yl)-2-oxoethyl)-6-((RS)-1,2-dimethoxyethyl)quinoline-4-carboxamide] |
| 0.61 nM | 0.31 nM | 460 nM | N#C[C@@H]1CSCN1C(=O)CNC(=O)c1ccnc2ccc(C3CCCO3)cc12 (mixture of isomers) [Example 34, N-(2-((R)-4-Cyanothiazolidin-3-yl)-2-oxoethyl)-6-((RS)-tetrahydrofuran-2-yl)quinoline-4-carboxamide] |
| 0.54 nM | 0.3 nM | 680 nM | N#C[C@@H]1CSCN1C(=O)CNC(=O)c1ccnc2ccc(C3COCCO3)cc12 (mixture of isomers) [Example 33, N-(2-((R)-4-Cyanothiazolidin-3-yl)-2-oxoethyl)-6-((RS)-1,4-dioxan-2-yl)quinoline-4-carboxamide] |
| – | 0.3 nM | 290 nM | N#C[C@@H]1CSCN1C(=O)CNC(=O)c1ccnc2ccc(Cn3cccn3)cc12 [Example 80, (R)-6-((1H-Pyrazol-1-yl)methyl)-N-(2-(4-cyanothiazolidin-3-yl)-2-oxoethyl)quinoline-4-carboxamide] |
| – | 0.22 nM | 240 nM | N#C[C@@H]1CSCN1C(=O)CNC(=O)c1ccnc2ccc(C3(c4ccc(Cl)cn4)CC3)cc12 [Example 47, (R)-6-(1-(5-Chloropyridin-2-yl)cyclopropyl)-N-(2-(4-cyanothiazolidin-3-yl)-2-oxoethyl)quinoline-4-carboxamide] |
